Test results published in patent US10647699B2, “Substituted 2-oxyimidazolylcarboxamides as pesticides” (Bayer CropScience Aktiengesellschaft, priority 2016, dated 2020).
Like-named read-outs stand apart in the source and are kept apart here.

Columns and labels:
[1] = system: Myzus persicae; test: Myzus persicae spray test (MYZUPE), Chinese cabbage leaf discs; format: in vivo; settings: for Emax at 100 g/ha: MYZUPE, 100 g of ai/ha, read-out: % efficacy
Method: Myzus persicae—Spray Test
To produce a suitable preparation of active compound, 1 part by weight of active compound is dissolved using the specified parts by weight of solvent and made up with water containing an emulsifier concentration of 1000 ppm until the desired concentration is attained. To produce further test concentrations, the formulation is diluted with emulsifier-containing water.
Discs of Chinese cabbage leaves (Brassica pekinensis) infested by all stages of the green peach aphid (Myzus persicae) are sprayed with an active compound formulation of the desired concentration.
After 5 or 6 days, the efficacy in % is determined. 100% means that all the aphids have been killed; 0% means that no aphids have been killed.
Myzus persicae—Spray Test (MYZUPE)
Discs of Chinese cabbage leaves (Brassica pekinensis) infested by all stages of the green peach aphid (Myzus persicae) are sprayed with an active compound preparation of the desired concentration.
After the desired period of time, the efficacy in % is determined. 100% means that all the aphids have been killed; 0% means that no aphids have been killed.

[2] = system: Myzus persicae; test: Myzus persicae oral test (MYZUPE O); format: in vivo; settings: for Emax at 0.8 ppm / Emax at 4 ppm: MYZUPE O, 5 dat, read-out: % efficacy
Method: Solvent: 100 parts by weight of acetone
To produce a suitable preparation of active compound, 1 part by weight of active compound is dissolved using the specified parts by weight of solvent and made up with water until the desired concentration is attained.
50 μl of the active compound preparation are transferred into microtitre plates and made up to a final volume of 200 μl with 150 μl of IPL41 insect medium (33%+15% sugar). Subsequently, the plates are sealed with parafilm, which a mixed population of green peach aphids (Myzus persicae) within a second microtitre plate is able to puncture and imbibe the solution through it.
After 5 days, the efficacy in % is determined. 100% means that all the aphids have been killed; 0% means that no aphids have been killed.
Myzus persicae—Oral Test (MYZUPE O)
After 5 or 6 days (dat), the efficacy in % is determined. 100% means that all the aphids have been killed; 0% means that no aphids have been killed.

[3] = log P by HPLC on reversed-phase columns (OECD Guideline 117), neutral range; format: physicochemical; settings: for chromatographic logP: reversed-phase (C18) HPLC column
[4] = after 6 days, application rate 500 g/ha
[5] = after 5 days, application rate 20 ppm
[6] = after 5 days, application rate 500 g/ha

Row | SMILES | LogP-neutral ([3]; pH 7.8) | efficacy [2, 5] [%] | efficacy [1, 6] [%] | other results
1 | Cc1nc(C(=O)Nc2cccnc2)c[nH]1 [Comparative Ex. 1, reference compound] |  |  |  | Emax at 100 g/ha ([1]; Myzus persicae, foliar, 5/6 dat): 0%; Emax at 0.8 ppm ([2]; Myzus persicae, po, 120 h): 0%; Emax at 4 ppm ([2]; Myzus persicae, po, 120 h): 0%
2 | O=C(Nc1cccnc1)c1c[nH]cn1 [Comparative Ex. 2, reference compound] |  |  |  | Emax at 100 g/ha ([1]; Myzus persicae, foliar, 144 h, 6 dat): 0%; Emax at 0.8 ppm ([2]; Myzus persicae, po, 120 h): 0%; Emax at 4 ppm ([2]; Myzus persicae, po, 120 h): 0%
3 | CN(C(=O)c1cnc(OCc2ncccn2)n1C)c1cccnc1 [Example II-11] | 0.53 |  |  | 
4 | CN(C(=O)c1cnc(Oc2ccccc2Cl)n1C)c1cccnc1 [Example II-13] |  | 100 |  | efficacy [1, 4]: 100%; LogP-neutral ([3]; HPLC, neutral range pH 7.8): 1.94
5 | CN(C(=O)c1cnc(Oc2ccccn2)n1C)c1cccnc1 [Example II-16] |  | 100 |  | LogP-neutral ([3]; HPLC, neutral range pH 7.8): 1.13
6 | CN(C(=O)c1cnc(OCc2ccc(F)cc2)n1C)c1cccnc1 [Example II-18] |  | 100 |  | efficacy [1, 4]: 100%
7 | CCC(C)Oc1ncc(C(=O)N(C)c2cccnc2)n1C (stereo not drawn) [Example II-20] | 1.75 | 100 |  | efficacy [1, 4]: 100%
8 | CN(C(=O)c1cnc(OC2CCCC2)n1C)c1cccnc1 [Example II-21] | 1.83 | 90 |  | efficacy [1, 4]: 90%
9 | CN(C(=O)c1cnc(OC2CCCCC2)n1C)c1cccnc1 [Example II-22] | 2.15 | 90 |  | efficacy [1, 4]: 90%
10 | CN(C(=O)c1cnc(Oc2ccc(Cl)c(Cl)c2)n1C)c1cccnc1 [Example II-28] |  | 90 | 100 | LogP-neutral ([3]; HPLC, neutral range pH 7.8): 2.57
11 | COc1ccc(Oc2ncc(C(=O)N(C)c3cccnc3)n2C)cn1 [Example II-39] | 1.5 | 90 | 90 | 
12 | Cc1ccc(Oc2ncc(C(=O)N(C)c3cccnc3)n2C)cn1 [Example II-44] | 1.26 | 100 | 90 | 
13 | CCOc1ncc(C(=O)N(CC)c2cccnc2)n1C [Example II-48] | 1.45 | 100 | 90 | 
14 | CN(C(=O)c1cnc(Oc2ccc(Oc3ccc(F)nc3)nc2)n1C)c1cccnc1 [Example II-49] | 1.86 | 100 | 90 | 
15 | CN(C(=O)c1cnc(Oc2ccc(Oc3ccc(Oc4ccc(F)nc4)nc3)nc2)n1C)c1cccnc1 [Example II-50] | 2.3 | 100 | 90 | 
16 | CCN(C(=O)c1cnc(Oc2ccc(Oc3ccc(Cl)nc3)nc2)n1C)c1cccnc1 [Example II-51] | 2.26 | 100 | 100 | 
17 | Cc1ccncc1Oc1ncc(C(=O)N(C)c2cccnc2)n1C [Example II-53] |  | 100 | 90 | LogP-neutral ([3]; HPLC, neutral range pH 7.8): 1.24
18 | Cc1cncc(Oc2ncc(C(=O)N(C)c3cccnc3)n2C)c1 [Example II-54] | 1.31 | 100 | 90 | 
19 | CN(C(=O)c1cnc(Oc2cccnc2)n1C)c1cccnc1 [Example II-55] |  | 100 | 100 | LogP-neutral ([3]; HPLC, neutral range pH 7.8): 1.08
20 | CN(C(=O)c1cnc(Oc2ccc(C(F)(F)F)nc2)n1C)c1cccnc1 [Example II-56] | 1.9 | 100 | 90 | 
21 | Cc1cc(Oc2ncc(C(=O)N(C)c3cccnc3)n2C)cnc1Cl [Example II-57] | 1.78 | 100 | 90 | 
22 | Cc1cc(Cl)ncc1Oc1ncc(C(=O)N(C)c2cccnc2)n1C [Example II-59] | 1.68 | 100 | 90 | 

Row | SMILES | LogP-neutral ([3]; pH 7.8) | efficacy [2, 5] [%] | efficacy [1, 6] [%] | other results
23 | COc1cncc(Oc2ncc(C(=O)N(C)c3cccnc3)n2C)c1 [Example II-60] | 1.28 | 100 | 90 | 
24 | CN(C(=O)c1cnc(Oc2ccc(Br)nc2)n1C)c1cccnc1 [Example II-61] | 1.63 | 90 | 100 | 
25 | CN(C(=O)c1cnc(Oc2cncc(C#N)c2)n1C)c1cccnc1 [Example II-62] |  | 100 | 90 | LogP-neutral ([3]; HPLC, neutral range pH 7.8): 1.27
26 | CN(C(=O)c1cnc(Oc2cnc3ccccc3c2)n1C)c1cccnc1 [Example II-63] |  |  |  | Emax at 100 g/ha ([1]; Myzus persicae, foliar, 120 h, 5 dat): 90%; pest or weed control at 500 g/ha ([1]; Myzus persicae, foliar, 120 h, after 5 days, application rate 500 g/ha, read-out: efficacy): 90%; chromatographic logP ([3]; HPLC, neutral range pH 7.8, read-out: LogP-neutral): 1.72; Emax at 0.8 ppm ([2]; Myzus persicae, po, 120 h): 90%; Emax at 4 ppm ([2]; Myzus persicae, po, 120 h): 100%; pest or weed control at 20 ppm ([2]; Myzus persicae, po, 120 h, after 5 days, application rate 20 ppm, read-out: efficacy): 100%
27 | COc1cc(Oc2ncc(C(=O)N(C)c3cccnc3)n2C)cnc1OC [Example II-64] | 1.49 |  | 100 | efficacy ([2]; after 5 days, application rate 4 ppm): 100%
28 | CN(C(=O)c1cnc(Oc2cnccc2Cl)n1C)c1cccnc1 [Example II-65] | 1.4 | 100 | 100 | 
29 | CN(C(=O)c1cnc(Oc2cccnc2Cl)n1C)c1cccnc1 [Example II-66] |  | 100 | 100 | LogP-neutral ([3]; HPLC, neutral range pH 7.8): 1.45
30 | CN(C(=O)c1cnc(Oc2cncc(Br)c2)n1C)c1cccnc1 [Example II-67] | 1.62 | 100 | 100 | 
31 | CN(C(=O)c1cnc(Oc2ccc(Cl)nc2)n1C)c1cccnc1 [Example II-68] |  | 100 | 90 | LogP-neutral ([3]; HPLC, neutral range pH 7.8): 1.45
32 | CN(C(=O)c1cnc(Oc2ccc(Oc3ccc(Cl)nc3)nc2)n1C)c1cccnc1 [Example II-69] | 1.94 |  |  | 
33 | COc1ncc(Cl)cc1Oc1ncc(C(=O)N(C)c2cccnc2)n1C [Example II-70] | 2.02 | 100 | 90 | 
34 | CN(C(=O)c1cnc(Oc2cccc(C#N)c2)n1C)c1cccnc1 [Example II-72] |  | 100 | 90 | LogP-neutral ([3]; HPLC, neutral range pH 7.8): 1.52
35 | CCOc1cccc(Oc2ncc(C(=O)N(C)c3cccnc3)n2C)c1 [Example II-73] | 2.1 | 100 | 90 | 
36 | CC(=O)Nc1cccc(Oc2ncc(C(=O)N(C)c3cccnc3)n2C)c1 [Example II-74] | 1.25 | 100 | 90 | 
37 | CCc1cccc(Oc2ncc(C(=O)N(C)c3cccnc3)n2C)c1 [Example II-75] |  | 100 | 90 | LogP-neutral ([3]; HPLC, neutral range pH 7.8): 2.35
38 | COc1cccc(Oc2ncc(C(=O)N(C)c3cccnc3)n2C)c1 [Example II-76] | 1.75 |  |  | 
39 | CCCc1cccc(Oc2ncc(C(=O)N(C)c3cccnc3)n2C)c1 [Example II-77] | 2.66 | 90 | 100 | 
40 | CN(C(=O)c1cnc(OCC(F)(F)F)n1C)c1cccnc1 [Example II-96] | 0.9 |  |  | 
41 | CCN(C(=O)c1cnc(Oc2cncc(Cl)c2)n1C)c1cccnc1 [Example II-97] | 2.03 |  |  | 
42 | CC(C)Oc1ncc(C(=O)Nc2cccnc2)n1C [II-1-H] |  |  |  | log P[n] ([3]; pH 7.8): 1.61
43 | CN(C(=O)c1cnc(Cl)n1C)c1cccnc1 [IX-1, 2-chloro-N, 1-dimethyl-N-(pyridin-3-yl)-1H-imidazole-5-carboxamide] |  |  |  | chromatographic logP ([3]; pH 7.8, HPLC-MS, neutral, read-out: log P[n]): 0.88
44 | Cn1c(C(=O)Nc2cccnc2)c[nH]c1=O [VI-1-H] |  |  |  | log P[n] ([3]; pH 7.8): 0.1
